Measured values from US10781227B2, “Application of metal complexes in anti-tumor and anti-bacterial therapy” (biolitec Unternehmensbeteiligungs II AG, priority 2018, dated 2020).

What was measured:
[1] = test system: HT29, L929, A431, A253, CAL-27 and J774A.1 cell lines; assay: Cell test of photodynamic activity and light independent toxicity, XTT cell viability assay; type: cell-based, human, mouse; conditions: for toxicity against tumor cells in the absence of light / activity against the cell lines without light: 2 or 10 μM; for toxicity against tumor cells in the absence of light: no irradiation; for activity against the cell lines under irradiation (phototoxicity): 2 or 10 μM photosensitizer, 24 h incubation, white light 50 J/cm^2, XTT after 24 h; for activity against the cell lines without light: no irradiation (dark toxicity)
Protocol: The photosensitizing activity was determined in the following cell lines: • HT29 (human colon adenocarcinoma cell line) • L929 (mouse fibroblast cell line) • A431 (human epidermoid carcinoma cell line) • A253 (submaxillary salivary gland, epidermoid cell line) • CAL-27 (human tongue squamous cell carcinoma cell line) • J774A.1 (Mouse BALB/c monocyte macrophage). The cell lines were grown in DMEM (PAA Laboratories GmbH) supplemented with 10% heat-inactivated fetal calf serum (FCS, PAA Laboratories GmbH), 1% penicillin (10000 IU) and streptomycin (10000 μg/ml, PAA Laboratories GmbH). Cells were kept as a monolayer culture in a humidified incubator (5% CO2 in air at 37° C.). A photosensitizer stock solution (2 mM) was performed in DMSO and was kept in the dark at 4° C. […] Cells were incubated with fresh medium (DMEM without phenol red) containing 10% FCS with 2 or 10 μM of the photosensitizer for 24 h before light exposure. Before photosensitization, cells were washed, cell culture medium was exchanged with DMEM without phenol red and 10% FCS, then irradiated at room temperature with white light source at a fixed fluence rate of about 100 mW/cm^2 (50 J/cm^2). Following irradiation, cells were incubated in a humidified incubator (5% CO2 in air at 37° C.) for 24 h until cell viability assay. […] Solution was stored in the dark at −20° C. until use. A sterile solution containing PMS ([…], Applichem GmbH) was needed as an activation reagent for the XTT. 0.383 mg PMS was dissolved in 1 ml PBS-Buffer. The solution should be stored frozen and should not be exposed to light. The XTT reagent solution was thawed in a 37° C. water bath and the activation solution (PMS) was added immediately prior to use. To prepare a reaction solution sufficient for one micro plate (96 wells), 0.1 ml activation solution (PMS) was given to 5 ml XTT reagent. The medium in the micro plate was exchanged with RPMI without phenol red and 10% FCS (100 μl) prior adding 50 μl XTT reaction solution per well. The micro plate was incubated for 2-3 hours at 37° C. and 5% CO2 until an orange dye was formed. The micro plate has been shaken gently to evenly distribute the dye in the wells. The absorbance of the samples was measured with a spectrophotometer (Infinite 200, Tecan Group Ltd.) at a wavelength of 490 nm.

[2] = test system: Staphylococcus aureus DSM 11729; Acinetobacter baumannii DSM30007; Klebsiella pneumoniae DSM30104; assay: Antibacterial testing, bacteria not specified; type: cell-based; conditions: PBS supplemented with 10% sterile horse blood serum
Protocol: (§1) The organisms studied were Staphylococcus aureus DSM 11729, Gram-positive; Acinetobacter baumannii DSM30007, and Klebsiella pneumoniae DSM30104, both Gram-negative. Cultures cells are suspended in sterile phosphate-buffered saline (PBS) or sterile PBS supplemented with 10% sterile horse blood serum. The bacterial suspensions are placed into sterile black well plates with clear bottoms. Concentrations of photosensitizer used in the study were as follows: 100 μM, 10 μM and 1 μM. After an incubation time period of 30 minutes, the samples are exposed to white light, with a power density and irradiation time resulting in an energy fluency of about 100 J/cm^2. Control plates contained no photosensitizer and are not exposed to laser light. The control samples for dark toxicity are only exposed to photosensitizer without any illumination. After irradiation, the samples are removed and suspended again in the culture media. The numbers of colony-forming units (CFU/ml) are enumerated after an adequate incubation time period.

[3] = test system: Staphylococcus aureus DSM 11729; assay: Antibacterial testing, colony-forming units after incubation with or without white light; type: cell-based; conditions: 100, 10 or 1 μM; for activity/toxicity against S. aureus without light: no illumination, CFU/ml; for activity against S. aureus under irradiation: 30 min incubation, white light about 100 J/cm^2, CFU/ml
Protocol: as §1

[4] = test system: Klebsiella pneumoniae DSM30104; assay: as above; type: cell-based; conditions: 100, 10 or 1 μM
Protocol: as §1

Substance	toxicity against tumor cells in the absence of light [1]	antibacterial activity in the presence of complex media (serum addition) [2]	activity/toxicity against S. aureus without light [3]	activity against S. aureus under irradiation [3]	activity against K. pneumoniae under irradiation ([4]; 30 min incubation, white light about 100 J/cm^2, CFU/ml)	activity against K. pneumoniae without light ([4]; no illumination, CFU/ml)	activity against the cell lines under irradiation (phototoxicity) [1]	activity against the cell lines without light [1]
[bis(2,2′-bipyridyl(4-(hexyloxy)-2,3,5,6-tetrafluorophenyl)-dipyrrinato)]ruthenium(II) chloride [Example 4.6]	high toxicity	–	–	–	–	–	–	–
[bis(2,2′-bipyridyl(4-(prop-2-enylamino)-2,3,5,6-tetrafluorophenyl)-dipyrrinato)]ruthenium(II) chloride [Example 4.7]	high toxicity	antibacterial activity is also observed	high toxicity	–	–	–	–	–
Tris[5-(4-β-D-thioglucosyl)-2,3,5,6-tetrafluorophenyl)dipyrrinato gallium(III) [Example 4.3]	–	antibacterial activity is also observed	nearly no activity	high activity	high activity	nearly no activity	high activity	no activity
Tris[5-(4-β-D-thiogalactosyl)-2,3,5,6-tetrafluorophenyl)dipyrrinato gallium(III) [Example 4.5]	–	–	nearly no activity	high activity	–	–	high activity	no activity
[bis(2,2′-bipyridyl(4-(prop-2-enyloxy)-2,3,5,6-tetrafluorophenyl)-dipyrrinato)]ruthenium(II) chloride [Example 4.8]	high toxicity	–	high toxicity	–	–	–	–	–
